In the supplement of paper PMC10307832:

Columns and labels:
Assay in all cases: relative viability (nuclei count vs DMSO), 5 days (fraction); higher = more cells survive
Afatinib + Palbociclib = compound: CN(C)C/C=C/C(=O)Nc1cc2c(Nc3ccc(F)c(Cl)c3)ncnc2cc1O[C@H]1CCOC1 [Afatinib] + CC(=O)c1c(C)c2cnc(Nc3ccc(N4CCNCC4)cn3)nc2n(C2CCCC2)c1=O [Palbociclib] (partner 0.5 µM)
In short: (§1)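 Lung cancer cell lines in 1536-well plates got either a single drug or a fixed anchor-drug dose together with five library-drug doses (not always all listed) in √10 steps, by pin tool, on the day after seeding. Nuclei were counted after 5 days, and relative viability is the treated-to-vehicle ratio of nuclei counts. Values are medians of duplicate plates.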

Afatinib + OSI-027 = compound: CN(C)C/C=C/C(=O)Nc1cc2c(Nc3ccc(F)c(Cl)c3)ncnc2cc1O[C@H]1CCOC1 [Afatinib] + COc1cccc2cc(-c3nc([C@H]4CC[C@H](C(=O)O)CC4)n4ncnc(N)c34)[nH]c12 [OSI-027] (partner 0.5 µM)
In short: as §1

Afatinib + Foretinib = compound: CN(C)C/C=C/C(=O)Nc1cc2c(Nc3ccc(F)c(Cl)c3)ncnc2cc1O[C@H]1CCOC1 [Afatinib] + COc1cc2c(Oc3ccc(NC(=O)C4(C(=O)Nc5ccc(F)cc5)CC4)cc3F)ccnc2cc1OCCCN1CCOCC1 [Foretinib] (partner 0.25 µM)
In short: as §1

Afatinib = compound: CN(C)C/C=C/C(=O)Nc1cc2c(Nc3ccc(F)c(Cl)c3)ncnc2cc1O[C@H]1CCOC1 [Afatinib]
In short: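 Hoechst staining, done together with fixation and permeabilisation, marked nuclei for 4× imaging and MetaXpress counting. This followed 5 days without medium change after lung cancer cell lines, kept overnight at 37 °C in 1536-well plates, were pinned with five library-drug doses (not always all listed) spaced by √10 on vehicle-anchored plates. Viability is the ratio of treated-well to vehicle-well nuclei, expressed as a median across plates. Plates passed only at control CV below 25% with at least one doubling.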

Row | Cell Line | relative viability (Afatinib + Palbociclib; first compound 0.005 µM) | relative viability (Afatinib + Palbociclib; first compound 0.01581 µM) | relative viability (Afatinib + Palbociclib; first compound 0.05 µM) | relative viability (Afatinib + Palbociclib; first compound 0.1581 µM) | relative viability (Afatinib + Palbociclib; first compound 0.5 µM) | relative viability (Afatinib + OSI-027; first compound 0.005 µM) | relative viability (Afatinib + OSI-027; first compound 0.01581 µM) | relative viability (Afatinib + OSI-027; first compound 0.05 µM) | relative viability (Afatinib + OSI-027; first compound 0.1581 µM) | relative viability (Afatinib + OSI-027; first compound 0.5 µM) | relative viability (Afatinib + Foretinib; first compound 0.005 µM) | relative viability (Afatinib + Foretinib; first compound 0.01581 µM) | relative viability (Afatinib + Foretinib; first compound 0.05 µM) | relative viability (Afatinib + Foretinib; first compound 0.1581 µM) | relative viability (Afatinib + Foretinib; first compound 0.5 µM) | relative viability (Afatinib; 0.005 µM) | relative viability (Afatinib; 0.01581 µM) | relative viability (Afatinib; 0.05 µM) | relative viability (Afatinib; 0.1581 µM) | relative viability (Afatinib; 0.5 µM)
1 | 201T | 0.336 | 0.346 | 0.354 | 0.358 | 0.339 | 0.7 | 0.642 | 0.722 | 0.62 | 0.653 | 1.04 | 1.05 | 1.01 | 0.949 | 1.17 | 1.01 | 0.942 | 0.944 | 0.92 | 0.956
2 | A-427 | 0.523 | 0.526 | 0.537 | 0.483 | 0.505 | 0.426 | 0.321 | 0.446 | 0.519 | 0.358 | 0.85 | 1.05 | 1.11 | 0.947 | 1.02 | 1.05 | 0.918 | 0.99 | 1.02 | 1.01
3 | ABC-1 | 0.559 | – | 0.576 | 0.572 | 0.561 | 0.475 | 0.315 | 0.453 | 0.429 | 0.405 | 1.25 | 1.01 | 1.08 | 0.743 | 1.21 | 0.876 | 0.77 | 0.876 | 0.874 | 0.912
4 | BEN | 0.447 | 0.565 | 0.535 | 0.455 | 0.484 | 0.326 | 0.283 | 0.297 | 0.299 | 0.298 | 0.719 | 0.63 | 0.651 | 0.634 | 0.775 | 1.04 | 0.897 | 1.05 | 1.09 | 1.06
5 | CAL-12T | 0.51 | 0.209 | 0.213 | 0.172 | 0.161 | 0.75 | 0.456 | 0.392 | 0.307 | 0.374 | 1.15 | 1.02 | 1.29 | 0.56 | 0.684 | 1 | 0.843 | 0.748 | 0.489 | 0.654
6 | COR-L23 | 0.329 | 0.308 | 0.317 | 0.274 | 0.339 | 0.941 | 0.829 | 0.755 | 0.739 | 0.78 | 1.16 | 0.981 | 0.946 | 1 | 1.01 | 1.08 | 0.944 | 1.11 | 1.04 | 1.01
7 | COR-L 105 | 0.398 | 0.355 | 0.3 | 0.36 | 0.352 | 0.346 | 0.252 | 0.265 | 0.245 | 0.27 | 0.385 | 0.448 | 0.37 | 0.287 | 0.318 | 0.522 | 0.387 | 0.45 | 0.287 | 0.309
8 | Calu-6 | – | – | – | – | – | – | – | – | – | – | 0.913 | 0.975 | 0.882 | 0.88 | 0.93 | 1.09 | 1 | 1.02 | 0.997 | 0.986
9 | ChaGo-K-1 | 0.932 | 0.977 | 0.977 | 0.864 | 0.96 | 0.625 | 0.516 | 0.515 | 0.585 | 0.469 | 0.86 | 0.882 | 0.876 | 0.86 | 0.846 | 1.07 | 1 | 0.996 | 0.977 | 0.999
10 | EBC-1 | – | – | – | – | – | – | – | – | – | – | 0.105 | 0.0995 | 0.0925 | 0.109 | 0.0966 | 1.02 | 0.976 | 1.02 | 0.969 | 1.01
11 | EKVX | 0.317 | 0.265 | 0.188 | 0.147 | 0.141 | 0.565 | 0.509 | 0.438 | 0.149 | 0.231 | 0.838 | 0.428 | 0.453 | 0.129 | 0.318 | 0.779 | 0.718 | 0.51 | 0.292 | 0.334
12 | EMC-BAC-2 | 0.539 | 0.531 | 0.551 | 0.498 | 0.519 | 0.371 | 0.355 | 0.418 | 0.378 | 0.352 | 1.03 | 0.952 | 0.865 | 0.753 | 0.928 | 1.12 | 0.821 | 1.14 | 1.01 | 1.02
13 | EPLC-272H | 0.31 | 0.294 | 0.283 | 0.284 | 0.292 | 0.279 | 0.203 | 0.231 | 0.213 | 0.211 | 0.492 | 0.426 | 0.406 | 0.381 | 0.355 | 0.915 | 0.687 | 0.831 | 0.718 | 0.718
14 | H3255 | 0.267 | 0.269 | 0.289 | 0.26 | 0.258 | 0.239 | 0.231 | 0.214 | 0.209 | 0.208 | 0.861 | 0.134 | 0.2 | 0.216 | 0.188 | 0.418 | 0.237 | 0.244 | 0.244 | 0.26
15 | HARA | 0.188 | 0.242 | 0.204 | 0.189 | 0.197 | 0.365 | 0.228 | 0.163 | 0.234 | 0.293 | 0.825 | 0.451 | 0.401 | 0.377 | 0.403 | 0.947 | 0.55 | 0.471 | 0.62 | 0.597
16 | HCC-15 | 0.743 | 0.753 | 0.702 | 0.755 | 0.746 | 0.708 | 0.753 | 0.733 | 0.724 | 0.547 | 1.04 | 1.15 | 1.08 | 1.07 | 0.988 | 1.04 | 1.06 | 1.04 | 0.979 | 0.999
17 | HCC-44 | 1 | 0.968 | 1.05 | 0.944 | 1.02 | 0.588 | 0.446 | 0.521 | 0.542 | 0.431 | – | – | – | – | – | 1.08 | 1 | 1.01 | 1.02 | 0.982
